# From paper PMC7933316 (2021)
# What was measured:
# Assay in all cases: SPR (equilibrium)
# [1] = test system: SRet-760 (full length, G12A, SPR form) (RNA, ribozyme) GGGAAACAAACAAAGCUGUCACUGGACCCUAACAUUCCAGUCUGAUGAGUCCUAUAGGCACGCUUCCCCCAGGUGUAGGGAGGACAAAACAGCAAAAAAAAAAAAAAAAAAAAAAAA; conditions: Na+ (1.5 M NaCl [sic]), Mg2+ 0.5 mM; HBS-N (0.1 M HEPES [sic]), pH 7.4
# [2] = test system: SRet-760 large stem loop (T7_SRet760_polyA) (RNA, aptamer) GGGGUCCUAUAGGCACGCUUCCCCCAGGUGUAGGGAGGACCCCCAAAAAAAAAAAAAAAAAAAAAAAA; conditions: Na+ (1.5 M NaCl [sic]), Mg2+ 0.5 mM; HBS-N (0.1 M HEPES [sic]), pH 7.4
# [3] = test system: SRet-584 (full length, G12A, SPR form) (RNA, ribozyme) GGGAAACAAACAAAGCUGUCACUGGACGCAAAAAUUCCAGUCUGAUGAGUCCAUAAUGAGCAACAACACGAUUCCUCAUGCGGGACAAAACAGCAAAAAAAAAAAAAAAAAAAAAAAA; conditions: Na+ (1.5 M NaCl [sic]), Mg2+ 0.5 mM; HBS-N (0.1 M HEPES [sic]), pH 7.4
# [4] = test system: Acic-145 (full length, G12A, SPR form) (RNA, ribozyme) GGGAAACAAACAAAGCUGUCACCGGAAUAACCGAAGUAGUUUAUGGGCUACCGAAAUCCGGUCUGAUGAGUCCUCGGGGUGGACAAAACAGCAAAAAAAAAAAAAAAAAA; conditions: Na+ (1.5 M NaCl [sic]), Mg2+ 0.5 mM; HBS-N (0.1 M HEPES [sic]), pH 7.4
# [5] = test system: Acic-145 large stem loop (T7_acic145_polyA) (RNA, aptamer) GGGACCGGAAUAACCGAAGUAGUUUAUGGGCUACCGAAAUCCGGUCCCCAAAAAAAAAAAAAAAAAAAAAAAA; conditions: Na+ (1.5 M NaCl [sic]), Mg2+ 0.5 mM; HBS-N (0.1 M HEPES [sic]), pH 7.4
# [6] = test system: Gard-547 (full length, G12A, SPR form) (RNA, ribozyme) GGGAAACAAACAAAGCUGUCACCGGAAUAGUCGAUGGGUGCUACAUAGCGCCGGAAUCCAGUCUGAUGAGUCUCUCGGCAGGACAAAACAGCAAAAAAAAAAAAAAAAAAAAAAAA; conditions: Na+ (1.5 M NaCl [sic]), Mg2+ 0.5 mM; HBS-N (0.1 M HEPES [sic]), pH 7.4; no replicates
# [7] = test system: Nosc-441 (full length, G12A, SPR form) (RNA, ribozyme) GGGAAACAAACAAAGCUGUCACCGGAAGAACUGACAUUUGCAACGUCAUGUGCGAUGUCCAACGUGUAGCCACCUAGGCGUACAGAUCCGGUCUGAUGAGUCCUCGAUGGACAAAACAGCAAAAAAAAAAAAAAAAAAAAAAAA; conditions: Na+ (1.5 M NaCl [sic]), Mg2+ 0.5 mM; HBS-N (0.1 M HEPES [sic]), pH 7.4
# [8] = test system: Nosc-441 large stem loop (RNA, aptamer) GGGACCGGAAGAACUGACAUUUGCAACGUCAUGUGCGAUGUCCAACGUGUAGCCACCUAGGCGUACAGAUCCGGUCCCCAAAAAAAAAAAAAAAAAAAAAAAA; conditions: Na+ (1.5 M NaCl [sic]), Mg2+ 0.5 mM; HBS-N (0.1 M HEPES [sic]), pH 7.4
# [9] = test system: Nosc-786 (full length, G12A, SPR form) (RNA, ribozyme) GGGAAACAAACAAAGCUGUCACCGGAAGAACUUACAUUUGCAACGUCAUGUGCGAUGUCCAACGUGUAGCCACCUAGGCGUACAGAUCCGGUCCGAUGAGUCCUCGAUGGACAAAACAGCAAAAAAAAAAAAAAAAAAAAAAAA; conditions: Na+ (1.5 M NaCl [sic]), Mg2+ 0.5 mM; HBS-N (0.1 M HEPES [sic]), pH 7.4
# [10] = test system: Theo-421 (full length, G12A, SPR form) (RNA, ribozyme) GGGAAACAAACAAAGCUGUCACCGGAAUGUGAGUCCGGUCUGAUGAGUCCCUCAUGUGCCUUCCAGCGGUACGAUACUCAGGACAAAACAGCAAAAAAAAAAAAAAAAAAAAAAAA; conditions: Na+ (1.5 M NaCl [sic]), Mg2+ 0.5 mM; HBS-N (0.1 M HEPES [sic]), pH 7.4
# [11] = test system: Theo-421 truncation, minimum free energy structure (T7_theo421_polyA_MFE) (RNA, aptamer) GGGGUCCCUCAUGUGCCUUCCAGCGGUACGAUACUCAGGACCCCCAAAAAAAAAAAAAAAAAAAAAAAA; conditions: Na+ (1.5 M NaCl [sic]), Mg2+ 0.5 mM; HBS-N (0.1 M HEPES [sic]), pH 7.4
# [12] = test system: Theo-421 truncation, 1st suboptimal structure (T7_theo421_polyA_subopt1) (RNA, aptamer) GGGUGAGUCCCUCAUGUGCCUUCCAGCGGUACGAUACUCACCCCAAAAAAAAAAAAAAAAAAAAAAAA; conditions: Na+ (1.5 M NaCl [sic]), Mg2+ 0.5 mM; HBS-N (0.1 M HEPES [sic]), pH 7.4
# [13] = test system: TZea-579 (full length, G12A, SPR form) (RNA, ribozyme) GGGAAACAAACAAAGCUGUCACCGGGUAGAACAGAAUGCAAGUGCGUAGAAGCGCCUCCGGUCUGACGAGUCCUUAGCACGGACAAAACAGCAAAAAAAAAAAAAAAAAAAAAAAA; conditions: Na+ (1.5 M NaCl [sic]), Mg2+ 0.5 mM; HBS-N (0.1 M HEPES [sic]), pH 7.4
# [14] = test system: TZea-579 large stem loop (RNA, aptamer) GGGACCGGGUAGAACAGAAUGCAAGUGCGUAGAAGCGCCUCCGGUCCCCAAAAAAAAAAAAAAAAAAAAAAAA; conditions: Na+ (1.5 M NaCl [sic]), Mg2+ 0.5 mM; HBS-N (0.1 M HEPES [sic]), pH 7.4
# [15] = test system: TZea-927 (full length, G12A, SPR form) (RNA, ribozyme) GGGAAACAAACAAAGCUGUCACCGGAAACUGGAUCUGGUCUGAUGAGUCCCUCCAUGCGACCCAGUGUGAUACGUGGACAGGACAAAACAGCAAAAAAAAAAAAAAAAAAAAAAAA; conditions: Na+ (1.5 M NaCl [sic]), Mg2+ 0.5 mM; HBS-N (0.1 M HEPES [sic]), pH 7.4
# [16] = test system: TZea-927 large stem loop (T7_zea927_polyA) (RNA, aptamer) GGGGUCCCUCCAUGCGACCCAGUGUGAUACGUGGACAGGACCCCCAAAAAAAAAAAAAAAAAAAAAAAA; conditions: Na+ (1.5 M NaCl [sic]), Mg2+ 0.5 mM; HBS-N (0.1 M HEPES [sic]), pH 7.4
compound,measurement,setting,value
COc1ccc(C[C@H]2c3cc(O)c(OC)cc3CCN2C)cc1O,KD,[1],0.15 ± 0.01 µM
same,binding,[2],no
same,Equilibrium KD,[3],0.465 µM
Nc1nc2c(ncn2COCCO)c(=O)[nH]1,KD,[4],1.5 ± 0.3 µM
same,KD,[5],0.700 ± 0.004 µM
CCNCc1nc2c(N)nc3ccccc3c2n1CC(C)(C)O,KD,[6],0.0101 µM
COc1ccc2c(c1OC)C(=O)O[C@@H]2[C@H]1c2c(cc3c(c2OC)OCO3)CCN1C,KD,[7],13 ± 2 µM
same,KD,[8],20 ± 7 µM
same,Equilibrium KD,[9],28.7 µM
Cn1c(=O)c2[nH]cnc2n(C)c1=O,KD,[10],68 ± 20 µM
same,binding,[11],no
same,KD,[12],17.0 ± 0.7 µM
C/C(=C\CNc1ncnc2[nH]cnc12)CO,KD,[13],3.1 ± 0.5 µM
same,KD,[14],37 ± 3 µM
same,KD,[15],62 ± 20 µM
same,binding,[16],no
